Experimental data: patent US5763404A, “Methods for using LHRH antagonists with low histamine release” (priority 1995, dated 1998)
Non-standard residues stand in square brackets, D forms with d. Residues, ends and D or L forms follow the SMILES beside them. *: point of attachment. dPhe(4-Cl) = N[C@H](Cc1ccc(Cl)cc1)C(=O)O; d2Nal = N[C@H](Cc1ccc2ccccc2c1)C(=O)O; dLys(iPr) = CC(C)NCCCC[C@@H](N)C(=O)O; Lys(iPr) = CC(C)NCCCC[C@H](N)C(=O)O; Lys(Me2) = CN(C)CCCC[C@H](N)C(=O)O; Orn(iPr) = CC(C)NCCC[C@H](N)C(=O)O; 3Pal = N[C@@H](Cc1cccnc1)C(=O)O; d3Pal = N[C@H](Cc1cccnc1)C(=O)O; Nicotinoyl = O=C(c1cccnc1)*; Orn = NCCC[C@H](N)C(=O)O

Tested on: anaesthesized rats
Assay: wheal test, intradermal injection
Format: in vivo, rat
Settings: Table I; 10 ug peptide intradermally
Description: The antiovulatory activity, AOA, in rats was determined as described by Humphries et al. (12). Antiovulation assays were performed by counting, on estrus, the number of ova shed by 4-day cycling rats after a single sc injection of the LH-RH analogue in corn oil was administered between 12 and 12:30 p.m. on […]. The control rats received 0.3 mL of the vehicle. The wheal test was performed by intradermally injecting 10 ug of peptide in 100 ul of saline into anaesthesized rats, measuring the ideally circular wheal response and calculating the area. The in vitro histamine release test was done as described by Karten et al. (4). A suspension of rat mast cells was added to increasing concentrations of peptide and the mixture was incubated for a few minutes followed by centrifugation to collect the histamine in the supernatant. A PIPES (piperazine-N,N'-bis[2-ethanesulfonic acid]) medium buffered at pH 7.4 containing NaCl 119 mM, KCl 5 mM, PIPES 25 mM, NaOH 40 mM, glucose 5.6 mM, CaCl2 1 mM, and 0.1% bovine serum albumin was used. This was designated as PIPES AC. Peptides were dissolved in double distilled H2 O at a concentration of 2 mg/ml and stored at -20° C. They were thawed just prior to testing, diluted in PIPES AC and prewarmed for five minutes at 37° C. Peptides studied were stable to heating at 56° C. for two hours, and to freezing and thawing.

Going from CC(=O)N[C@H](Cc1ccc2ccccc2c1)C(=O)N[C@H](Cc1ccc(Cl)cc1)C(=O)N[C@H](Cc1cccnc1)C(=O)N[C@@H](CO)C(=O)N[C@@H](Cc1ccc(O)cc1)C(=O)N[C@H](CCCCNC(=O)c1cccnc1)C(=O)N[C@@H](CC(C)C)C(=O)N[C@@H](CCCCN(C)C)C(=O)N1CCC[C@H]1C(=O)N[C@H](C)C(N)=O [compound 24443] (Ac-[d2Nal][dPhe(4-Cl)][d3Pal]SY[dK](Nicotinoyl)L[Lys(Me2)]P[dA]-NH2) to CC(=O)N[C@H](Cc1ccc2ccccc2c1)C(=O)N[C@H](Cc1ccc(Cl)cc1)C(=O)N[C@H](Cc1cccnc1)C(=O)N[C@@H](CO)C(=O)N[C@@H](Cc1ccc(O)cc1)C(=O)N[C@H](CCCCNC(=O)c1cccnc1)C(=O)N[C@@H](CC(C)C)C(=O)N[C@@H](CCCN)C(=O)N1CCC[C@H]1C(=O)N[C@H](C)C(N)=O [compound 24748] (Ac-[d2Nal][dPhe(4-Cl)][d3Pal]SY[dK](Nicotinoyl)L[Orn]P[dA]-NH2), the Wheal rises from 122.7 mm^2 /10 to 129.4 mm^2 /10.

First: CC(=O)N[C@H](Cc1ccc2ccccc2c1)C(=O)N[C@H](Cc1ccc(Cl)cc1)C(=O)N[C@H](Cc1ccc(O)cc1)C(=O)N[C@@H](CO)C(=O)N[C@@H](CCCNC(=N)N)C(=O)N[C@H](CCCCNC(=O)c1cccnc1)C(=O)N[C@@H](CC(C)C)C(=O)N[C@@H](CCCNC(=N)N)C(=O)N1CCC[C@H]1C(=O)N[C@H](C)C(N)=O [compound 24446] (Ac-[d2Nal][dPhe(4-Cl)][dY]SR[dK](Nicotinoyl)LRP[dA]-NH2)
Second: CC(=O)N[C@H](Cc1ccc2ccccc2c1)C(=O)N[C@H](Cc1ccc(Cl)cc1)C(=O)N[C@H](CCCCNC(=O)c1cccnc1)C(=O)N[C@@H](CO)C(=O)N[C@@H](Cc1ccc(O)cc1)C(=O)N[C@H](CCCCNC(=O)c1cccnc1)C(=O)N[C@@H](CC(C)C)C(=O)N[C@@H](CCCNC(=N)N)C(=O)N1CCC[C@H]1C(=O)N[C@H](C)C(N)=O [compound 24597] (Ac-[d2Nal][dPhe(4-Cl)][dK](Nicotinoyl)SY[dK](Nicotinoyl)LRP[dA]-NH2)
The Wheal of the first is higher: 113.2 mm^2 /10 for the first, 101.0 mm^2 /10 for the second.

Compared with CC(=O)N[C@H](Cc1ccc2ccccc2c1)C(=O)N[C@H](Cc1ccc(Cl)cc1)C(=O)N[C@H](Cc1cccnc1)C(=O)N[C@@H](CO)C(=O)N[C@@H](Cc1ccc(O)cc1)C(=O)N[C@H](CCCCNC(=O)c1cccnc1)C(=O)N[C@@H](CC(C)C)C(=O)N[C@@H](CCCCNC(=O)c1cccnc1)C(=O)N1CCC[C@H]1C(=O)N[C@H](C)C(N)=O [compound 24540] (Ac-[d2Nal][dPhe(4-Cl)][d3Pal]SY[dK](Nicotinoyl)LK(Nicotinoyl)P[dA]-NH2), CC(=O)N[C@H](Cc1ccc2ccccc2c1)C(=O)N[C@H](Cc1ccc(Cl)cc1)C(=O)N[C@H](Cc1cccnc1)C(=O)N[C@@H](CO)C(=O)N[C@@H](Cc1c[nH]cn1)C(=O)N[C@H](CCCCNC(=O)c1cccnc1)C(=O)N[C@@H](CC(C)C)C(=O)N[C@@H](CCCCNC(=O)c1cccnc1)C(=O)N1CCC[C@H]1C(=O)N[C@H](C)C(N)=O [compound 24745] (Ac-[d2Nal][dPhe(4-Cl)][d3Pal]SH[dK](Nicotinoyl)LK(Nicotinoyl)P[dA]-NH2) is higher in Wheal: 82.6 ± 2.8 mm^2 /10 for the first, 136.3 ± 6.8 mm^2 /10 for the second.

Going from CC(=O)N[C@H](Cc1ccc2ccccc2c1)C(=O)N[C@H](Cc1ccc(Cl)cc1)C(=O)N[C@H](Cc1cccnc1)C(=O)N[C@@H](CO)C(=O)N[C@@H](CCCCNC(C)C)C(=O)N[C@H](CCCCNC(=O)c1cccnc1)C(=O)N[C@@H](CC(C)C)C(=O)N[C@@H](CCCCNC(C)C)C(=O)N1CCC[C@H]1C(=O)N[C@H](C)C(N)=O [compound 24543] (Ac-[d2Nal][dPhe(4-Cl)][d3Pal]S[Lys(iPr)][dK](Nicotinoyl)L[Lys(iPr)]P[dA]-NH2) to CC(=O)N[C@H](Cc1ccc2ccccc2c1)C(=O)N[C@H](Cc1ccc(Cl)cc1)C(=O)N[C@H](Cc1cccnc1)C(=O)N[C@@H](CO)C(=O)N[C@@H](CCCCNC(=O)c1cccnc1)C(=O)N[C@H](CCCCNC(C)C)C(=O)N[C@@H](CC(C)C)C(=O)N[C@@H](CCCNC(=N)N)C(=O)N1CCC[C@H]1C(=O)N[C@H](C)C(N)=O [compound 24754] (Ac-[d2Nal][dPhe(4-Cl)][d3Pal]SK(Nicotinoyl)[dLys(iPr)]LRP[dA]-NH2), the Wheal rises from 132.7 mm^2 /10 to 196.9 ± 4.1 mm^2 /10.

First: CC(=O)N[C@H](Cc1ccc2ccccc2c1)C(=O)N[C@H](Cc1ccc(Cl)cc1)C(=O)N[C@H](Cc1cccnc1)C(=O)N[C@@H](CO)C(=O)N[C@@H](CCCCNC(=O)c1cccnc1)C(=O)N[C@H](Cc1c[nH]cn1)C(=O)N[C@@H](CC(C)C)C(=O)N[C@@H](CCCNC(=N)N)C(=O)N1CCC[C@H]1C(=O)N[C@H](C)C(N)=O [compound 24544] (Ac-[d2Nal][dPhe(4-Cl)][d3Pal]SK(Nicotinoyl)[dH]LRP[dA]-NH2)
Second: CC(=O)N[C@H](Cc1ccc2ccccc2c1)C(=O)N[C@H](Cc1ccc(Cl)cc1)C(=O)N[C@H](Cc1cccnc1)C(=O)N[C@@H](CO)C(=O)N[C@@H](Cc1c[nH]cn1)C(=O)N[C@H](CCCCNC(=O)c1cccnc1)C(=O)N[C@@H](CC(C)C)C(=O)N[C@@H](CCCNC(=N)N)C(=O)N1CCC[C@H]1C(=O)N[C@H](C)C(N)=O [compound 24545] (Ac-[d2Nal][dPhe(4-Cl)][d3Pal]SH[dK](Nicotinoyl)LRP[dA]-NH2)
The Wheal of the first is higher: 146.7 ± 3.6 mm^2 /10 for the first, 139.7 ± 0 mm^2 /10 for the second.

Going from CC(=O)N[C@H](Cc1ccc2ccccc2c1)C(=O)N[C@H](Cc1ccc(Cl)cc1)C(=O)N[C@H](Cc1cccnc1)C(=O)N[C@@H](CO)C(=O)N[C@@H](Cc1cccnc1)C(=O)N[C@H](CCCCNC(=O)c1cccnc1)C(=O)N[C@@H](CC(C)C)C(=O)N[C@@H](CCCNC(=N)N)C(=O)N1CCC[C@H]1C(=O)N[C@H](C)C(N)=O [compound 24593] (Ac-[d2Nal][dPhe(4-Cl)][d3Pal]S[3Pal][dK](Nicotinoyl)LRP[dA]-NH2) to CC(=O)N[C@H](Cc1ccc2ccccc2c1)C(=O)N[C@H](Cc1ccc(Cl)cc1)C(=O)N[C@H](Cc1cccnc1)C(=O)N[C@@H](CO)C(=O)N[C@@H](CCCNC(=N)N)C(=O)N[C@H](Cc1cccnc1)C(=O)N[C@@H](CC(C)C)C(=O)N[C@@H](CCCCNC(=O)c1cccnc1)C(=O)N1CCC[C@H]1C(=O)N[C@H](C)C(N)=O [compound 24771] (Ac-[d2Nal][dPhe(4-Cl)][d3Pal]SR[d3Pal]LK(Nicotinoyl)P[dA]-NH2), the Wheal falls from 146.4 ± 3.6 mm^2 /10 to 99.0 ± 10.3 mm^2 /10.

CC(=O)N[C@H](Cc1ccc2ccccc2c1)C(=O)N[C@H](Cc1ccc(Cl)cc1)C(=O)N[C@H](Cc1cccnc1)C(=O)N[C@@H](CO)C(=O)N[C@@H](CCCCNC(=O)c1cccnc1)C(=O)N[C@H](CCCCNC(=O)c1cccnc1)C(=O)N[C@@H](CC(C)C)C(=O)N[C@@H](CCCNC(=N)N)C(=O)N1CCC[C@H]1C(=O)N[C@H](C)C(N)=O [compound 24594] (Ac-[d2Nal][dPhe(4-Cl)][d3Pal]SK(Nicotinoyl)[dK](Nicotinoyl)LRP[dA]-NH2) and CC(=O)N[C@H](Cc1ccc2ccccc2c1)C(=O)N[C@H](Cc1ccc(Cl)cc1)C(=O)N[C@H](Cc1cccnc1)C(=O)N[C@@H](CO)C(=O)N[C@@H](CCCCNC(C)C)C(=O)N[C@H](CCCCNC(=O)c1cccnc1)C(=O)N[C@@H](CC(C)C)C(=O)N[C@@H](CCCCNC(=O)c1cccnc1)C(=O)N1CCC[C@H]1C(=O)N[C@H](C)C(N)=O [compound 24746] (Ac-[d2Nal][dPhe(4-Cl)][d3Pal]S[Lys(iPr)][dK](Nicotinoyl)LK(Nicotinoyl)P[dA]-NH2) are within error of each other in Wheal: 126.2 ± 8.8 mm^2 /10 for the first, 132.8 ± 5.9 mm^2 /10 for the second.

First: CC(=O)N[C@H](Cc1ccc2ccccc2c1)C(=O)N[C@H](Cc1ccc(Cl)cc1)C(=O)N[C@H](Cc1cccnc1)C(=O)N[C@@H](CO)C(=O)N[C@@H](CCCCNC(=O)c1cccnc1)C(=O)N[C@H](CCCCNC(=O)c1cccnc1)C(=O)N[C@@H](CC(C)C)C(=O)N[C@@H](CCCCNC(=O)c1cccnc1)C(=O)N1CCC[C@H]1C(=O)N[C@H](C)C(N)=O [compound 24596] (Ac-[d2Nal][dPhe(4-Cl)][d3Pal]SK(Nicotinoyl)[dK](Nicotinoyl)LK(Nicotinoyl)P[dA]-NH2)
Second: CC(=O)N[C@H](Cc1ccc2ccccc2c1)C(=O)N[C@H](Cc1ccc(Cl)cc1)C(=O)N[C@H](Cc1cccnc1)C(=O)N[C@@H](CO)C(=O)N[C@@H](Cc1ccc(O)cc1)C(=O)N[C@H](CCCNC(=N)N)C(=O)N[C@@H](CC(C)C)C(=O)N[C@@H](CCCCNC(=O)c1cccnc1)C(=O)N1CCC[C@H]1C(=O)N[C@H](C)C(N)=O [compound 24749] (Ac-[d2Nal][dPhe(4-Cl)][d3Pal]SY[dR]LK(Nicotinoyl)P[dA]-NH2)
The Wheal of the first is lower: 122.8 ± 5.7 mm^2 /10 for the first, 136.3 mm^2 /10 for the second.

Compared with CC(=O)N[C@H](Cc1ccc2ccccc2c1)C(=O)N[C@H](Cc1ccc(Cl)cc1)C(=O)N[C@H](Cc1cccnc1)C(=O)N[C@@H](CO)C(=O)N[C@@H](Cc1ccc(O)cc1)C(=O)N[C@H](CCCCNC(=O)c1cccnc1)C(=O)N[C@@H](CC(C)C)C(=O)N[C@@H](CCCNC(C)C)C(=O)N1CCC[C@H]1C(=O)N[C@H](C)C(N)=O [compound 24756] (Ac-[d2Nal][dPhe(4-Cl)][d3Pal]SY[dK](Nicotinoyl)L[Orn(iPr)]P[dA]-NH2), CC(=O)N[C@H](Cc1ccc2ccccc2c1)C(=O)N[C@H](Cc1ccc(Cl)cc1)C(=O)N[C@H](Cc1cccnc1)C(=O)N[C@@H](CO)C(=O)N[C@@H](Cc1ccc(O)cc1)C(=O)N[C@H](CCCCNC(C)C)C(=O)N[C@@H](CC(C)C)C(=O)N[C@@H](CCCCNC(=O)c1cccnc1)C(=O)N1CCC[C@H]1C(=O)N[C@H](C)C(N)=O [compound 24824] (Ac-[d2Nal][dPhe(4-Cl)][d3Pal]SY[dLys(iPr)]LK(Nicotinoyl)P[dA]-NH2) is higher in Wheal: 92.2 ± 2.9 mm^2 /10 for the first, 122.8 ± 5.8 mm^2 /10 for the second.
